Results as given in paper PMC12415923.

Assay: Two-fold Williamson etherification: BINOL bis(chloroethoxyethyl ether) (Me/H/iPr-6_2) + BINOL bisphenol (Me/H/iPr-2), 1:1, Cs2CO3 (3.2 equiv); ring closure = phenoxide O-alkylation by alkyl chloride
Settings: the molecule shown is the open-chain precursor; 42-membered ring; MeCN; 9.0 mM; 85.0 °C; 6.0 h
Compound `COCOc1c(-c2ccc(OCCOCCCl)cc2)cc2ccccc2c1-c1c(OCOC)c(-c2ccc(OCCOCCOc3c(C(C)C)cc(-c4cc5ccccc5c(-c5c(OCOC)c(-c6cc(C(C)C)c(O)c(C(C)C)c6)cc6ccccc56)c4OCOC)cc3C(C)C)cc2)cc2ccccc12` [(R,S)-HiPr-M2_2 ((R)-H unit, (S)-iPr unit)] has a ring closure, isolated yield of 48.9%.
Work on `COCOc1c(-c2ccc(OCCOCCCl)cc2)cc2ccccc2c1-c1c(OCOC)c(-c2ccc(OCCOCCOc3c(C(C)C)cc(-c4cc5ccccc5c(-c5c(OCOC)c(-c6cc(C(C)C)c(O)c(C(C)C)c6)cc6ccccc56)c4OCOC)cc3C(C)C)cc2)cc2ccccc12` [(S,S)-HiPr-M2_2] yielded a ring closure, isolated yield of 72.7%.
`COCOc1c(-c2ccc(O)cc2)cc2ccccc2c1-c1c(OCOC)c(-c2ccc(OCCOCCOc3ccc(-c4cc5ccccc5c(-c5c(OCOC)c(-c6ccc(OCCOCCCl)cc6)cc6ccccc56)c4OCOC)cc3)cc2)cc2ccccc12` [H-M2_2] gave a ring closure, isolated yield of 77.8%.
In the case of `COCOc1c(-c2cc(C)c(O)c(C)c2)cc2ccccc2c1-c1c(OCOC)c(-c2cc(C)c(OCCOCCOc3c(C)cc(-c4cc5ccccc5c(-c5c(OCOC)c(-c6cc(C)c(OCCOCCCl)c(C)c6)cc6ccccc56)c4OCOC)cc3C)c(C)c2)cc2ccccc12` [Me-M2_2], the ring closure, isolated yield is reported as 59.4%.
Compound `COCOc1c(-c2cc(C(C)C)c(O)c(C(C)C)c2)cc2ccccc2c1-c1c(OCOC)c(-c2cc(C(C)C)c(OCCOCCOc3c(C(C)C)cc(-c4cc5ccccc5c(-c5c(OCOC)c(-c6cc(C(C)C)c(OCCOCCCl)c(C(C)C)c6)cc6ccccc56)c4OCOC)cc3C(C)C)c(C(C)C)c2)cc2ccccc12` [iPr-M2_2] has a ring closure, isolated yield of 76.5%.

Assay: Two-fold Williamson etherification: 3,3'-bis(4-hydroxyaryl)-BINOL-MOM diol (Me/H/iPr-2) + oligoethylene glycol bistosylate (1 equiv), Cs2CO3 (ca. 2-2.5 equiv); ring closure = phenoxide O-alkylation by tosylate
Settings: the molecule shown is the open-chain precursor; 30-membered ring; MeCN; 1.0 mM; 85.0 °C
`COCOc1c(-c2ccc(O)cc2)cc2ccccc2c1-c1c(OCOC)c(-c2ccc(OCCOCCOCCOCCOCCOS(=O)(=O)c3ccc(C)cc3)cc2)cc2ccccc12` [H-M1_5] showed a ring closure, isolated yield of 11%.
Compound `COCOc1c(-c2cc(C)c(O)c(C)c2)cc2ccccc2c1-c1c(OCOC)c(-c2cc(C)c(OCCOCCOCCOCCOCCOS(=O)(=O)c3ccc(C)cc3)c(C)c2)cc2ccccc12` [Me-M1_5] has a ring closure, isolated yield of 21.1%.
Work on `COCOc1c(-c2cc(C(C)C)c(O)c(C(C)C)c2)cc2ccccc2c1-c1c(OCOC)c(-c2cc(C(C)C)c(OCCOCCOCCOCCOCCOS(=O)(=O)c3ccc(C)cc3)c(C(C)C)c2)cc2ccccc12` [iPr-M1_5] yielded a ring closure, isolated yield of 19.6%.

Same assay, conditions: the molecule shown is the open-chain precursor; 33-membered ring; MeCN; 1.0 mM; 85.0 °C
`COCOc1c(-c2ccc(O)cc2)cc2ccccc2c1-c1c(OCOC)c(-c2ccc(OCCOCCOCCOCCOCCOCCOS(=O)(=O)c3ccc(C)cc3)cc2)cc2ccccc12` [H-M1_6] showed a ring closure, isolated yield of 29.7%.
`COCOc1c(-c2cc(C)c(O)c(C)c2)cc2ccccc2c1-c1c(OCOC)c(-c2cc(C)c(OCCOCCOCCOCCOCCOCCOS(=O)(=O)c3ccc(C)cc3)c(C)c2)cc2ccccc12` [Me-M1_6] gave a ring closure, isolated yield of 53.7%.
Compound `COCOc1c(-c2cc(C(C)C)c(O)c(C(C)C)c2)cc2ccccc2c1-c1c(OCOC)c(-c2cc(C(C)C)c(OCCOCCOCCOCCOCCOCCOS(=O)(=O)c3ccc(C)cc3)c(C(C)C)c2)cc2ccccc12` [iPr-M1_6] has a ring closure, isolated yield of 41.2%.

Same assay, conditions: the molecule shown is the open-chain precursor; 36-membered ring; MeCN; 1.0 mM; 85.0 °C
Compound `COCOc1c(-c2ccc(O)cc2)cc2ccccc2c1-c1c(OCOC)c(-c2ccc(OCCOCCOCCOCCOCCOCCOCCOS(=O)(=O)c3ccc(C)cc3)cc2)cc2ccccc12` [H-M1_7] has a ring closure, isolated yield of 32.1%.
Compound `COCOc1c(-c2cc(C)c(O)c(C)c2)cc2ccccc2c1-c1c(OCOC)c(-c2cc(C)c(OCCOCCOCCOCCOCCOCCOCCOS(=O)(=O)c3ccc(C)cc3)c(C)c2)cc2ccccc12` [Me-M1_7] has a ring closure, isolated yield of 75%.
In the case of `COCOc1c(-c2cc(C(C)C)c(O)c(C(C)C)c2)cc2ccccc2c1-c1c(OCOC)c(-c2cc(C(C)C)c(OCCOCCOCCOCCOCCOCCOCCOS(=O)(=O)c3ccc(C)cc3)c(C(C)C)c2)cc2ccccc12` [iPr-M1_7], the ring closure, isolated yield is reported as 45.5%.

Same assay, conditions: the molecule shown is the open-chain precursor; 39-membered ring; MeCN; 1.0 mM; 85.0 °C
`COCOc1c(-c2ccc(O)cc2)cc2ccccc2c1-c1c(OCOC)c(-c2ccc(OCCOCCOCCOCCOCCOCCOCCOCCOS(=O)(=O)c3ccc(C)cc3)cc2)cc2ccccc12` [H-M1_8] gave a ring closure, isolated yield of 40.3%.
Compound `COCOc1c(-c2cc(C)c(O)c(C)c2)cc2ccccc2c1-c1c(OCOC)c(-c2cc(C)c(OCCOCCOCCOCCOCCOCCOCCOCCOS(=O)(=O)c3ccc(C)cc3)c(C)c2)cc2ccccc12` [Me-M1_8] has a ring closure, isolated yield of 38.2%.
Compound `COCOc1c(-c2cc(C(C)C)c(O)c(C(C)C)c2)cc2ccccc2c1-c1c(OCOC)c(-c2cc(C(C)C)c(OCCOCCOCCOCCOCCOCCOCCOCCOS(=O)(=O)c3ccc(C)cc3)c(C(C)C)c2)cc2ccccc12` [iPr-M1_8] has a ring closure, isolated yield of 53.3%.
